The record followed here is patent publication US9428460B2, “N-[4-(quinolin-4-yloxy)cyclohexyl(methyl)](hetero)arylcarboxamides as androgen receptor antagonists, production and use thereof as medicinal products” (BAYER PHARMA AKTIENGESELLSCHAFT, priority 2012, dated 2016).

Each structure is given as a SMILES string.

The target of assay [1] is human androgen receptor (full length, wild-type form) (Homo sapiens (Human), UniProt P10275). The assay can be described thus: Transactivation assay for the wild-type androgen receptor (PC-3 cells, MMTV-luciferase reporter). Particulars: in the presence of R1881, 16 hours. It is filed as cell-based. The source says: For determining the androgen receptor-dependent transcription, a cellular assay system was used, consisting of PC-3 cells (Kaighn et al., Invest. Urol. 17: 16-23, 1979), which express the human androgen receptor stably and recombinantly (full length, wild-type form, see Swiss-Prot Acc. No. P10275, Entry Version 159, Sequence Version 2). In addition, these PC3 cells contain a stably integrated reporter gene plasmid, which is based on the commercially available plasmid pGL4.14 (#E6691, Promega Corporation, Madison, Wis., USA) and contains the luciferase gene from the American firefly (Photinus pyralis) under the control of the MMTV promoter (Cato et al., EMBO J. 6: 363-368, 1987). These cells were propagated in routine cell culture at 37° C. and 5% CO2 in a medium containing 90% RPMI 1640 (Invitrogen GmbH, Darmstadt, Germany), 100 U penicillin, 100 μg/ml streptomycin (Invitrogen), 4 mM L-glutamine (Invitrogen), 10% fetal calf serum (FCS Serum Gold, PAA Laboratories GmbH, Cölbe, Germany), 600 μg/ml Geneticin (G418-sulphate, Invitrogen) and 10 μg/ml puromycin (Sigma Aldrich GmbH, Germany).
For carrying out the transactivation assays, approx. 1000 cells per well were plated out in a 384-well cell culture plate in a medium that contained activated charcoal-treated calf serum (FCS Serum Gold, PAA Laboratories) at a concentration of 5% (v/v). The test substances were added in a concentration series from 5.12×10^−12 to 1×10^−5 M in the presence of […] R1881 (methyltrienolone). The test plates were incubated overnight at 37° C. and 5% CO2. After 16 hours, 15 μl of Steady Glo Lysis and Detection reagent (E2550, Promega Corporation, Madison, Wis., USA) was added per well and the luminescence was read in a Topcount Luminometer (PerkinElmer, Waltham, Mass., USA) for 4 seconds per well. The luminescence values obtained were normalized, wherein 100% corresponded to the effect of the unstimulated control (without R1881), and 0% corresponded to the effect of the stimulated control (R1881 plus DMSO instead of test substance). The IC50 value was determined by regression analysis based on a four-parameter equation (minimum, maximum, IC50, Hill coefficient; Y=Max+(Min−Max)/(1+(X/IC50)^Hill)).

Another assay has as its system LNCaP cells. The assay can be described thus: Proliferation assay with LNCaP cells. It is filed as cell-based. The following applies: Homo sapiens, 168 h, in the presence of 1×10^−10 M R1881, seven days, AlamarBlue, read-out: IC50 LNCaP cell proliferation. The procedure: LNCaP cells (Horoszewicz et al., in “Models for Prostate Cancer” (ed. G. P. Murphy), Alan R. Liss, New York 1981, p. 115-132; Horoszewicz et al., Cancer Res. 43: 1809-1818, 1983) were plated out at a density of 2000 cells per well of a 96-well cell culture plate in RMPI 1640 medium (F1275, Biochrom AG), which contained activated charcoal-treated calf serum (FCS Serum Gold, PAA Laboratories) at a concentration of 5% (v/v). Three days later the cells were treated with the test substances in concentrations from 1×10^−8 to 1×10^−10 M in the presence of 1×10^−10 M R1881. Cell proliferation was determined seven days later after incubation for 2 hours with AlamarBlue (DAL1100, Invitrogen) (Nakayama et al., J Immunol Methods, 204(2): 205-8, 1997). The fluorescence values obtained were normalized, wherein 100% corresponded to the effect of the unstimulated control (without R1881), and 0% corresponded to the effect of the stimulated control (R1881 plus DMSO instead of test substance). The IC50 value was determined by regression analysis based on a four-parameter equation (minimum, maximum, IC50, Hill coefficient; Y=Max+(Min−Max)/(1+(X/IC50)^Hill)).

human androgen receptor (full length, wild-type form), sequence (P10275 whole entry): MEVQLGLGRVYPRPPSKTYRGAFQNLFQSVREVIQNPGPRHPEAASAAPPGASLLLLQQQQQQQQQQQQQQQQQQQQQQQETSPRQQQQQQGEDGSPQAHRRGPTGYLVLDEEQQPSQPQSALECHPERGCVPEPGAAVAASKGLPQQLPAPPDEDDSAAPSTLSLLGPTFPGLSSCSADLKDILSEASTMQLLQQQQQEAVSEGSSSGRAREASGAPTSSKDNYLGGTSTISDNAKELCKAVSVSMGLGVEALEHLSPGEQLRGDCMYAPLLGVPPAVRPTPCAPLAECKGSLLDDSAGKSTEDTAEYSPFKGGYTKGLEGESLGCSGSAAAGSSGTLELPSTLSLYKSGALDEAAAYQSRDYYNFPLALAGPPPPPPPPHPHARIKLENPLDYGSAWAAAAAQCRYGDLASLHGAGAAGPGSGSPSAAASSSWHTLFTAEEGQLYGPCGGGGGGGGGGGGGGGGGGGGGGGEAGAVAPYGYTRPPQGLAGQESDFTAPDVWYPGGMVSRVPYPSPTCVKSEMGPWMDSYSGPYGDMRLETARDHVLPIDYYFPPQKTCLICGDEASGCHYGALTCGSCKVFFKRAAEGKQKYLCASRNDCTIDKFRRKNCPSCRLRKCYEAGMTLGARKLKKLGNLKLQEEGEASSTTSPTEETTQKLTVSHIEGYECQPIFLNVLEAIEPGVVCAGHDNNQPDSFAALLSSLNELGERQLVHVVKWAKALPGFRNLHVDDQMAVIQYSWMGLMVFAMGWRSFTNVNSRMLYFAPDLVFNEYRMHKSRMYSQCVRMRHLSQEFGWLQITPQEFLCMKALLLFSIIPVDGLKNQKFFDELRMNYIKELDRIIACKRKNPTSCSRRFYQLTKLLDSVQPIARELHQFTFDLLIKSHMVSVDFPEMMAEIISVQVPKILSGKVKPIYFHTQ

Take `N#Cc1ccc(C(=O)N[C@H]2CC[C@H](Oc3ccnc4c(Br)cccc34)CC2)cc1` [Example 15, N-{trans-4-[(8-bromoquinolin-4-yl)oxy]cyclohexyl}-4-cyanobenzamide]: the IC50 in assay [1] stood at 261 nM; in the assay with LNCaP cells it was 190 nM. With `O=C(N[C@H]1CC[C@H](Oc2ccnc3c(Br)cccc23)CC1)c1ccc(F)cc1` [Example 17, N-{trans-4-[(8-bromoquinolin-4-yl)oxy]cyclohexyl}-4-fluorobenzamide], in assay [1], the IC50 is 477 nM. Regarding `O=C(NC[C@H]1CC[C@H](Oc2ccnc3c(F)cccc23)CC1)c1ccc(F)cc1` [Example 1, N-({trans-4-[(8-fluoroquinolin-4-yl)oxy]cyclohexyl}methyl)-4-fluorobenzamide], the figures for the IC50 (in assay [1]; with LNCaP cells) were 240 nM and 170 nM, respectively. Take `Cc1cc(C(=O)NC[C@H]2CC[C@H](Oc3ccnc4c(Br)cccc34)CC2)no1` [Example 20, N-({trans-4-[(8-bromoquinolin-4-yl)oxy]cyclohexyl}methyl)-5-methylisoxazole-3-carboxamide]: in assay [1], the IC50 is 690 nM. The same measure, in the same setting: under `O=C(N[C@H]1CC[C@H](Oc2ccnc3c(Br)cccc23)CC1)c1cccc(F)c1` [Example 12, N-{trans-4-[(8-bromoquinolin-4-yl)oxy]cyclohexyl}-3-fluorobenzamide] stands 93 nM. Consider `Cc1nocc1C(=O)NC[C@H]1CC[C@H](Oc2ccnc3c(F)cccc23)CC1` [Example 4, N-({trans-4-[(8-fluoroquinolin-4-yl)oxy]cyclohexyl}methyl)-3-methylisoxazole-4-carboxamide], for which the values for the IC50 (in assay [1]; in the assay with LNCaP cells) were 210 nM and 250 nM, respectively. As to `O=C(NC[C@H]1CC[C@H](Oc2ccnc3c(F)cccc23)CC1)c1ccno1` [Example 5, N-({trans-4-[(8-fluoroquinolin-4-yl)oxy]cyclohexyl}methyl)-isoxazole-5-carboxamide], the IC50 came out at 460 nM in assay [1] and 390 nM in the assay on LNCaP cells. As for `Cc1cc(C(=O)NC[C@H]2CC[C@H](Oc3ccnc4c(C#N)cccc34)CC2)no1` [Example 32, N-({trans-4-[(8-cyanoquinolin-4-yl)oxy]cyclohexyl}methyl)-5-methylisoxazole-3-carboxamide], the IC50 in assay [1] was determined as 650 nM; in the assay on LNCaP cells, 560 nM. Regarding `Cc1cc(C(=O)NC[C@H]2CC[C@H](Oc3ccnc4c(F)cccc34)CC2)no1` [Example 7, N-({trans-4-[(8-fluoroquinolin-4-yl)oxy]cyclohexyl}methyl)-5-methylisoxazole-3-carboxamide], the IC50 in assay [1] came out at 480 nM; in the assay on LNCaP cells it was 97 nM. For the molecule `Cc1cc(C(=O)N[C@H]2CC[C@H](Oc3ccnc4c(C#N)cccc34)CC2)no1` [Example 26, N-{trans-4-[(8-cyanoquinolin-4-yl)oxy]cyclohexyl}-5-methylisoxazole-3-carboxamide], the IC50 in assay [1] came to 18 nM.

Regarding `N#Cc1cccc2c(O[C@H]3CC[C@H](CNC(=O)c4ccon4)CC3)ccnc12` [Example 31, N-({trans-4-[(8-cyanoquinolin-4-yl)oxy]cyclohexyl}methyl)isoxazole-3-carboxamide], the IC50 in assay [1] amounted to 720 nM; with LNCaP cells, 730 nM. For `N#Cc1cccc2c(O[C@H]3CC[C@H](NC(=O)c4cc(F)cc(F)c4)CC3)ccnc12` [Example 30, N-{trans-4-[(8-cyanoquinolin-4-yl)oxy]cyclohexyl}-3,5-difluorobenzamide] the same measures were 39 nM and 30 nM. As for `N#Cc1cccc2c(O[C@H]3CC[C@H](NC(=O)c4ccc(Cl)c(F)c4)CC3)ccnc12` [Example 29, 4-chloro-N-{trans-4-[(8-cyanoquinolin-4-yl)oxy]cyclohexyl}-3-fluorobenzamide], the IC50 in assay [1] amounted to 61 nM; in the assay with LNCaP cells, 29 nM. As for `O=C(N[C@H]1CC[C@H](Oc2ccnc3c(Br)cccc23)CC1)c1ccc(F)c(Cl)c1` [Example 18, N-{trans-4-[(8-bromoquinolin-4-yl)oxy]cyclohexyl}-3-chloro-4-fluorobenzamide], the IC50 in assay [1] was found to be 190 nM. For the molecule `O=C(N[C@H]1CC[C@H](Oc2ccnc3c(Br)cccc23)CC1)c1ccc(F)c(F)c1` [Example 13, N-{trans-4-[(8-bromoquinolin-4-yl)oxy]cyclohexyl}-3,4-difluorobenzamide], the IC50 in assay [1] worked out at 170 nM. Take `Cc1ccc(C(=O)N[C@H]2CC[C@H](Oc3ccnc4c(C#N)cccc34)CC2)cc1F` [Example 28, N-{trans-4-[(8-cyanoquinolin-4-yl)oxy]cyclohexyl}-3-fluoro-4-methylbenzamide]: the IC50 in assay [1] stood at 45 nM; in the assay on LNCaP cells, 51 nM.

Regarding `N#Cc1ccc(C(=O)NC[C@H]2CC[C@H](Oc3ccnc4ccccc34)CC2)cc1` [Example 22, N-{[trans-4-(4-quinolyloxy)cyclohexyl]methyl}-4-cyanobenzamide], the IC50 in assay [1] came out at 330 nM; in the assay on LNCaP cells, 87 nM. Take `N#Cc1cccc2c(O[C@H]3CC[C@H](NC(=O)c4ccc(F)cc4)CC3)ccnc12` [Example 25, N-{trans-4-[(8-cyanoquinolin-4-yl)oxy]cyclohexyl}-4-fluorobenzamide]: the IC50 worked out at 140 nM in assay [1] and 233 nM in the assay on LNCaP cells. Consider `N#Cc1cccc2c(O[C@H]3CC[C@H](NC(=O)c4ccc(F)c(Cl)c4)CC3)ccnc12` [Example 27, 3-chloro-N-{trans-4-[(8-cyanoquinolin-4-yl)oxy]cyclohexyl}-4-fluorobenzamide], for which, in assay [1], the IC50 was 67 nM. `O=C(NC[C@H]1CC[C@H](Oc2ccnc3c(F)cccc23)CC1)c1ccon1` [Example 6, N-({trans-4-[(8-fluoroquinolin-4-yl)oxy]cyclohexyl}methyl)isoxazole-3-carboxamide]: the results for the IC50 (in assay [1]; in the assay on LNCaP cells) were 740 nM and 21 nM, respectively.

On to `O=C(N[C@H]1CC[C@H](Oc2ccnc3ccccc23)CC1)c1ccc(F)c(F)c1` [Example 3, N-[trans-4-(4-quinolyloxy)cyclohexyl]-3,4-difluorobenzamide], for which the results for the IC50 (in assay [1]; in the assay on LNCaP cells) were 45 nM and 99 nM, respectively. For `O=C(NC[C@H]1CC[C@H](Oc2ccnc3c(Br)cccc23)CC1)c1ccon1` [Example 21, N-({trans-4-[(8-bromoquinolin-4-yl)oxy]cyclohexyl}methyl)isoxazole-3-carboxamide], the IC50 in assay [1] is 630 nM. `Cc1ccc(C(=O)N[C@H]2CC[C@H](Oc3ccnc4c(Br)cccc34)CC2)cc1F` [Example 14, N-{trans-4-[(8-bromoquinolin-4-yl)oxy]cyclohexyl}-3-fluoro-4-methylbenzamide]: the IC50 in assay [1] came to 68 nM. Still for that read-out and setting: the value for `O=C(N[C@H]1CC[C@H](Oc2ccnc3c(Br)cccc23)CC1)c1ccc(C(F)(F)F)c(F)c1` [Example 16, N-{trans-4-[(8-bromoquinolin-4-yl)oxy]cyclohexyl}-3-fluoro-4-(trifluoromethyl)benzamide] was 463 nM. On to `O=C(NC[C@H]1CC[C@H](Oc2ccnc3c(F)cccc23)CC1)c1cc[nH]n1` [Example 8, N-({trans-4-[(8-fluoroquinolin-4-yl)oxy]cyclohexyl}methyl)-1H-pyrazole-3-carboxamide], for which the IC50 in assay [1] was determined as 420 nM; in the assay with LNCaP cells, 1120 nM. For the molecule `Cc1cc(C(=O)N[C@H]2CC[C@H](Oc3ccnc4c(Br)cccc34)CC2)no1` [Example 2, N-{trans-4-[(8-bromoquinolin-4-yl)oxy]cyclohexyl}-5-methylisoxazole-3-carboxamide], in assay [1], the IC50 was 20 nM.
